Columns and labels:
[1] = tested on: collagenase; assay: Inhibitory effect of collagenase expression (collagenase immunoassay of fibroblast culture media); assay type: cell-based; conditions: human fibroblasts; for Degree of collagenase expression (%): serum-free DMEM, 1×10^4M for 24 hours, untreated group = 100
Procedure: The effect of inhibiting collagenase expression achieved by kaempferol-3-O-rutinoside obtained from Examples 3 and 4 is measured and compared with that achieved by tocopherol and EGCG. Tocopherol and EGCG are anti-oxidation materials that regenerate an epidermal cell of skin and prevent skin aging.
(§1) Human fibroblasts were inserted in a 96-well microtiter plate containing the DMEM (Dulbecco's Modified Eagle's Media) media with 2.5% fetal bovine serum to a quantity of 5000 cells/well and cultured until the human fibroblasts grow by 90%, then cultured again in the serum-free DMEM media for 24 hours. The kaempferol-3-O-rutinoside of Examples 3 and 4, tocopherol and EGCG dissolved in the serum-free DMEM media were treated at a concentration of 1×10^4M for 24 hours, and the cell culture media was harvested.
The degree of collagenase generation of harvested cell culture media was measured using an instrument for measuring collagenase (Amershampharmacia Company). The harvested cell culture media was added in a 96-well plate coated uniformly with first collagenase antibody, and antigen-antibody reaction was conducted for 3 hours in a thermostat.
After 3 hours, second collagen antibody bonded with chromophore was added in the 96-well plate to react for 15 minutes. After 15 minutes, color developing material was inserted at room temperature for 15 minutes to induce color development, then 1M sulfuric acid was added to terminate the reaction (color development). The color of the reaction solution is yellow and the degree of yellow color can differ according to a degree of reaction progression.
Absorbance of the 96-well plate having the yellow color was measured through an absorbency measurement at 405 nm and a degree of synthesis was calculated by the following equation 1. In the calculation, an absorbance of cell culture media untreated with the material was used as a control group. That is, a degree of collagenase expression of an untreated group is 100, and a degree of collagenase expression of a group treated with the material as compared to that of the control group is obtained.

[2] = tested on: procollagen; assay: Promoting effect of procollagen generation (procollagen type-1 C-peptide EIA kit); assay type: cell-based; conditions: human fibroblasts; for Degree of procollagen generation (%): serum-free DMEM, 1×10^−4M for 24 hours, untreated group = 100
Procedure: The promoting effect of procollagen generation achieved by kaempferol-3-O-rutinoside obtained from Examples 3 and 4 is measured and compared with that achieved by vitamin C. The procollagen is a material inducing collagen generation and is required to generate collagen and prevent aging. Vitamin C is known as an essential component for synthesis of collagen.
as §1, with “4,” for “4, tocopherol”, “vitamin C” for “EGCG”, “1×10^−4M” for “1×10^4M”, “harvested. After 24 hours, the amount of procollagen floating in the culture media was measured using procollagen type-1 C-peptide EIA kit (MK101, Takara, Japan).” for “harvested.”
In an untreated group, a degree of procollagen generation is 100. A degree of procollagen generation of a group treated with the material as compared to that of the control group is obtained.

Compound | Degree of collagenase expression (%) [1] [%] | Degree of procollagen generation (%) [2] [%] | Effect on collagenase expression (in words) ([1]; in vitro) | Effect on procollagen generation (in words) ([2]; in vitro)
O=C(O[C@@H]1Cc2c(O)cc(O)cc2O[C@@H]1c1cc(O)c(O)c(O)c1)c1cc(O)c(O)c(O)c1 [EGCG, reference compound] | 60 | – | – | –
CC1OC(OCC2OC(Oc3c(-c4ccc(O)cc4)oc4cc(O)cc(O)c4c3=O)C(O)C(O)C2O)C(O)C(O)C1O (centres unmarked) [Example 3-1, Kaempferol-3-O-rutinoside] | 70 | 121 | – | –
CC1OC(OCC2OC(Oc3c(-c4ccc(O)cc4)oc4cc(O)cc(O)c4c3=O)C(O)C(O)C2O)C(O)C(O)C1O (centres unmarked) [Example 3-2, Kaempferol-3-O-rutinoside] | 71 | 118 | – | –
CC1OC(OCC2OC(Oc3c(-c4ccc(O)cc4)oc4cc(O)cc(O)c4c3=O)C(O)C(O)C2O)C(O)C(O)C1O (centres unmarked) [Example 3-3, Kaempferol-3-O-rutinoside] | 63 | 138 | – | –
CC1OC(OCC2OC(Oc3c(-c4ccc(O)cc4)oc4cc(O)cc(O)c4c3=O)C(O)C(O)C2O)C(O)C(O)C1O (centres unmarked) [Example 4-1, Kaempferol-3-O-rutinoside] | 68 | 145 | – | –
CC1OC(OCC2OC(Oc3c(-c4ccc(O)cc4)oc4cc(O)cc(O)c4c3=O)C(O)C(O)C2O)C(O)C(O)C1O (centres unmarked) [Example 4-2, Kaempferol-3-O-rutinoside] | 73 | 123 | – | –
CC1OC(OCC2OC(Oc3c(-c4ccc(O)cc4)oc4cc(O)cc(O)c4c3=O)C(O)C(O)C2O)C(O)C(O)C1O (centres unmarked) [Example 4-3, Kaempferol-3-O-rutinoside] | 70 | 122 | – | –
O=C1O[C@H]([C@@H](O)CO)C(O)=C1O [Vitamin C, reference compound] | – | 120 | – | –
CC1OC(OCC2OC(Oc3c(-c4ccc(O)cc4)oc4cc(O)cc(O)c4c3=O)C(O)C(O)C2O)C(O)C(O)C1O (centres unmarked) [kaempferol-3-O-rutinoside] | – | – | inhibits the collagenase expression in vitro | promotes the procollagen generation in vitro
Tocopherol [reference compound] | 75 | – | – | –

— patent US20100113372A1, “Method For Preparing Kaempferol-3-0-Rutinoside and Composition of Skin External Application Comprising Thereof” (Amorepacific Corporation, priority 2006, published 2010)
